Series [1] deals with T1, Serine/threonine-protein kinase ULK1 (Homo sapiens, UniProt O75385).
T1 sequence (O75385 whole entry): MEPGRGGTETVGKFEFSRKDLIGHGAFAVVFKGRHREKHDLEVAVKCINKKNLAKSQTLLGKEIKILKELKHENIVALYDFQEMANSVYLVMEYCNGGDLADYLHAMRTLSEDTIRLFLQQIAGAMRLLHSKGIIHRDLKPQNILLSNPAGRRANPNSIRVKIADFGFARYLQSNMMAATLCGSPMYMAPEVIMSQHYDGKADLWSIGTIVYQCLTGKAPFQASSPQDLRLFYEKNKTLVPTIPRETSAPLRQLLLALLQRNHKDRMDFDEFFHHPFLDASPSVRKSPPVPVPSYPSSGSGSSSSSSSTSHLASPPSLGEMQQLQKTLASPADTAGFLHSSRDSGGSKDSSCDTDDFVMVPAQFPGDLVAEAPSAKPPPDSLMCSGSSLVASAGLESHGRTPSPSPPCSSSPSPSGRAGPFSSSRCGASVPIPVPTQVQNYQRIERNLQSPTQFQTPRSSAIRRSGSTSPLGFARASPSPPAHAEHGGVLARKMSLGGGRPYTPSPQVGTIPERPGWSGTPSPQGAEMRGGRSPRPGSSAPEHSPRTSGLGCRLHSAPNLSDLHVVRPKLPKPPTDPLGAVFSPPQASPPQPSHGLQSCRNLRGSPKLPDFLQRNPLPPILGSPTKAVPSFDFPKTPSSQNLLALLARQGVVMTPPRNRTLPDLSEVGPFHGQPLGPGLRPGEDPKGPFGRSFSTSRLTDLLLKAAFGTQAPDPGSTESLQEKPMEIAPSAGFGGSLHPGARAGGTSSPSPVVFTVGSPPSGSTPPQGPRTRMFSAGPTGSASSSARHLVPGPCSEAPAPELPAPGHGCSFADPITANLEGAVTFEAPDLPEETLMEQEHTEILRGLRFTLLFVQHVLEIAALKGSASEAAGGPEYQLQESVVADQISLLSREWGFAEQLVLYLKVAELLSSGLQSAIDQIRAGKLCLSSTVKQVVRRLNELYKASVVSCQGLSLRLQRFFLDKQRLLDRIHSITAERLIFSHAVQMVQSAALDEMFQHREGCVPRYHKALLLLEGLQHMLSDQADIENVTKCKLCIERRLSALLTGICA
Description: Binding affinity to human ULK1 by KINOMEscan assay

Series [2] concerns the target T2, Serine/threonine-protein kinase ULK2 (Homo sapiens, UniProt Q8IYT8).
T2 sequence (Q8IYT8 whole entry): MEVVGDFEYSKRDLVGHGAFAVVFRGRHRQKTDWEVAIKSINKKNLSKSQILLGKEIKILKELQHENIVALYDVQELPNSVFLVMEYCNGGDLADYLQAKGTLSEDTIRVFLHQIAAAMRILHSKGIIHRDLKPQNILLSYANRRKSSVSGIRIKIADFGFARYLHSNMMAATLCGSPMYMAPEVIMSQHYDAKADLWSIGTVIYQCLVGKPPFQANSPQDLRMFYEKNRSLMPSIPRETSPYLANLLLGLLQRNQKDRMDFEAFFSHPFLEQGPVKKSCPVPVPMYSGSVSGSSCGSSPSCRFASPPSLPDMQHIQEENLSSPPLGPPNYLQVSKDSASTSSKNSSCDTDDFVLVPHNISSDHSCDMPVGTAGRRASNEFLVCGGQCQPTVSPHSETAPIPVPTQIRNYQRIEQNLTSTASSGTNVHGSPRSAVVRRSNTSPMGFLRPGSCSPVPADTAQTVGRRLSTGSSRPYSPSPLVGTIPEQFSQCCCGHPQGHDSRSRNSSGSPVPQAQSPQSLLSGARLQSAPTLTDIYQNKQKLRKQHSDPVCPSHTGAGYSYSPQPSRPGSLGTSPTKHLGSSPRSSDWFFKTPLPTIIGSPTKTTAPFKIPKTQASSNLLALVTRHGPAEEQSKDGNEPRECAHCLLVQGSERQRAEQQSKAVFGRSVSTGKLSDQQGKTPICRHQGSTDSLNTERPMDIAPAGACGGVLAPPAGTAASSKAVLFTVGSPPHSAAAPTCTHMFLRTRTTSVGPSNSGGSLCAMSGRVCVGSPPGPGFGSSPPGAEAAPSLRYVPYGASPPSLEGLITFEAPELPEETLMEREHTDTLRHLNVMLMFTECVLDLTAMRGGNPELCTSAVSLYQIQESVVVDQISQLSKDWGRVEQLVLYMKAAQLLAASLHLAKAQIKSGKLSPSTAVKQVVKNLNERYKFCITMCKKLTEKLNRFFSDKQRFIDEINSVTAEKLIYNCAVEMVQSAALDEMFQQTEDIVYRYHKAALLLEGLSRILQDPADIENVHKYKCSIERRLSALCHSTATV
Description: Binding affinity to human ULK2 by KINOMEscan assay

A further series addresses Cytochrome P450 2D6 (Homo sapiens, UniProt P10635). Briefly: Inhibition of CYP2D6 in human liver microsomes assessed as dextromethorphan O-demethylation reaction measured after 30 mins by LC/MS/MS analysis. In kind it is ADME, Microsome. For orientation: Microsomes from liver hold many membrane-bound enzymes, among them those of drug oxidation.
Series [3] has as its target Voltage-gated inwardly rectifying potassium channel KCNH2 (Homo sapiens, UniProt Q12809). The series can be described thus: Inhibition of hERG expressed in HEK cells assessed as K+ tail current by whole-cell electrophysiology. In kind it is toxicity, cell-based. A general note: The hERG channel carries a current that helps repolarise heart muscle cells.

Structures are written as SMILES. pIC50: −log10 of the molar value. Some results are limits rather than exact numbers.

Results on one compound are retold here after ChEMBL document CHEMBL6109120, “Discovery of Novel SIK2/3 Inhibitors for the Potential Treatment of MEF2C+ Acute Myeloid Leukemia (AML)” (J Med Chem, 2025).

Chain of Cytochrome P450 2D6 (P10635 whole entry): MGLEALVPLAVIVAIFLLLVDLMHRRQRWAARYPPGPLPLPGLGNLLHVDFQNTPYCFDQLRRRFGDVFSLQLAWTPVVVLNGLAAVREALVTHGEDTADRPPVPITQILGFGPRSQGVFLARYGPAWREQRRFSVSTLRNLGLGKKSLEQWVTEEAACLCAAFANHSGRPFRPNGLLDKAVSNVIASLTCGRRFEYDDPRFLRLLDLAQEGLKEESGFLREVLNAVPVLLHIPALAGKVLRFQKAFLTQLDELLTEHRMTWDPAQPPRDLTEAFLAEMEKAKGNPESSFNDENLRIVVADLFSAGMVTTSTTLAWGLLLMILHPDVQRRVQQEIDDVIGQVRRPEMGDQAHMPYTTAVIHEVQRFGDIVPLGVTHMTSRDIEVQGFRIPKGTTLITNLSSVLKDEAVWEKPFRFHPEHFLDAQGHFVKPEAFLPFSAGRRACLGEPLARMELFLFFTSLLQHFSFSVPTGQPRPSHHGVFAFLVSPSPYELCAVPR
Chain of Voltage-gated inwardly rectifying potassium channel KCNH2 (Q12809 whole entry): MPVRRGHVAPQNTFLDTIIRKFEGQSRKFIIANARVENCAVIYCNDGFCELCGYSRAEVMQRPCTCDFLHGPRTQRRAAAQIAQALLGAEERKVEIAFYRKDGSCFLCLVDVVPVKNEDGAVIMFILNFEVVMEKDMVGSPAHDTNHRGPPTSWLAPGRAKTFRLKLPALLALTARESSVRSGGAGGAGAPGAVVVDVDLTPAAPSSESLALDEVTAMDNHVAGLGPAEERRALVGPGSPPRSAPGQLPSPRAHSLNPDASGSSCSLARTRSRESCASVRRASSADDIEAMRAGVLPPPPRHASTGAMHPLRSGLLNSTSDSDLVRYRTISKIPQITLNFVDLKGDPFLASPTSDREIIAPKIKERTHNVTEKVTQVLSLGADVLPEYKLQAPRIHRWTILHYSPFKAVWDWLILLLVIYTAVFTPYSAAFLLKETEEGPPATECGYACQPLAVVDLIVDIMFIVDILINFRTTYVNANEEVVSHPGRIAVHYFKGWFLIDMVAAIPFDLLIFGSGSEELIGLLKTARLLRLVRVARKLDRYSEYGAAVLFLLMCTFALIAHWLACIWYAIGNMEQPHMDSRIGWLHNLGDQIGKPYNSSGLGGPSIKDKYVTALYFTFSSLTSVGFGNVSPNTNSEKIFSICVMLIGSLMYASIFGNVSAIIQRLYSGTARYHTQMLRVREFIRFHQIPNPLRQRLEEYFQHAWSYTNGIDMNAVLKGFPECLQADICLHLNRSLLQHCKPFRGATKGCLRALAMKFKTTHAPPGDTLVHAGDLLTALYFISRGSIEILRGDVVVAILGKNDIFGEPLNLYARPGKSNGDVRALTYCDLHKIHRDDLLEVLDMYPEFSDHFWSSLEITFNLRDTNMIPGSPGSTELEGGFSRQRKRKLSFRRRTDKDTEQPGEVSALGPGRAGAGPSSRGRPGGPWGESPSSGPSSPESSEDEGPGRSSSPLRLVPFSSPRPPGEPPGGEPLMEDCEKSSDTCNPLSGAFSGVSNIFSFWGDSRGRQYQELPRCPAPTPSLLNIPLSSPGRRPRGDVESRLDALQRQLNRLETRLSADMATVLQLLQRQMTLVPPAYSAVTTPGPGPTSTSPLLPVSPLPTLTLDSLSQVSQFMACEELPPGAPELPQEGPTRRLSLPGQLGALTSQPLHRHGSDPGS

As a reminder, the pIC50 is the IC50 on a negative log10 scale, so that one unit is a factor of ten. With `COc1nc(-c2cc(-c3cnn(C)c3)cnc2N)cc2c1C(=O)N(CC(F)(F)F)CC2`, the values for the negative-log IC50 (pIC50) (in series [1]; in series [2]; at Cytochrome P450 2D6) were 6.23, 5.68 and below 4.30, respectively. The “inhibition (INH)” value in series [3] was 34%.
